Measured values: US8697629B2, “Modulation of intracellular signaling” (Angstrom Pharmaceuticals, Inc., priority 2010, dated 2014)

What was measured:
Assay type in all cases: cell-based
A2780 cells [1] = experiment: Boyden chamber chemotaxis of A2780 cells; conditions: 10 ng/ml VEGF in NIH3T3-conditioned media, overnight
Procedure: A2780 (FIG. 10a) and SKOV3 (FIG. 10b) cells were incubated with the indicated concentrations of Å6 peptide for 30 min at 37° C. Aliquots representing 6,000 cells were placed on quadruplicate, CnI-coated filters (8 μm pores) in Boyden chambers and the cells allowed to migrate overnight in response to 10 ng/ml VEGF in NIH3T3-conditioned media containing the indicated concentrations of Å6. Upon completion of migration, the apical surfaces of the membranes were wiped clean and the migrating cells on the basal surface were stained with Geimsa stain and the cells present in representative fields of the membranes counted. Data represent the averages+/−standard deviations obtained from the replicate filters. […] This provides further confirmation that CD44 is the target for the Å6 peptide.

A2780 cells [2] = experiment: Adhesion of A2780 cells to hyaluronic acid; conditions: immobilized HA; 1 or 10 μM Å6
Procedure: In FIG. 12 A2780 cells were cultured overnight with or without 10 μM Å6 or 100 ng/ml PMA. The cells were then detached, washed and loaded with 20 μg/ml CFDA-SE for 30 min at 37° C. After washing, the cells were resuspended in PBS containing 10% FCS and triplicate aliquots representing 100,000 cells incubated for 30 min at room temperature with no additions, 1 or 10 μM Å6 or with 20 ng/ml IM7, a blocking anti-CD44 rat monoclonal antibody. The cells were then placed into microtiter wells that had been coated with 50 ul of 1 mg/ml HA overnight and blocked for 30 min with 10% FCS. The cells were allowed to adhere at room temperature for 30 min after which, the wells were decanted and washed 3 times. The fluorescence in each well was assessed (excit./emiss.: 460/536 nm) and the mean fluorescence values (+/standard deviation) of the triplicate determinations calculated.

ERK 1/2 = ERK 1/2 phosphorylation (T202/Y204) in SKOV3 cells, immunoblot
Procedure: (§1) Cells were detached from their culture vessels by brief trypsinization, suspended in complete media and centrifuged at 250×g for 10 min at room temperature. The cell pellets were suspended in Dulbeco's phosphate buffered saline (DPBS) and re-centrifuged for a total of three washes. The cells were then re-suspended at 3.33E5/ml in 24 ml of either RPMI containing 0.5% BSA (Sigma Chem. Co. #A0336) (RPMI/BSA) or the conditioned media of growing NIH3T3 fibroblasts (10% FBS in DMEM) supplemented with 10 ng/ml vascular endothelial growth factor (VEGF) (CMN). The cells were then treated with or without 100 ug/ml soluble hyaluronic acid (HA; human umbilical, Calbiochem #385902) for 30 min at 37° C. under 5% CO2. Aliquots representing 2E6 cells were then plated into 10 cm culture dishes and A6 added to yield final concentrations of 0, 10, 100 and 1000 nM. The cells were cultured overnight (18 hr) at 37° C. under 5% CO2.
(§2) After 18 hr of treatment, the media were aspirated from the 10 cm dishes and saved. The plates were washed 3 times with 4 ml of ice-cold DPBS which were pooled with the reserved non-adherent cells. The non-adherent cells were centrifuged at 250×g for 10 min at 4° C., washed twice with cold DPBS, drained and lysed in 50 ul of cold RIPA buffer (ThermoScientific #89901) containing cocktails of broad spectrum phosphatase inhibitors (Calbiochem #524625; used at 2× final concentration) and protease inhibitors (Sigma #P8340) (RIPA/inh.). The 10 cm dishes were drained of remaining wash and the adherent cells lysed by scraping in 200 μL of cold RIPA/inh. For each test condition, the lysates of the non-adherent and adherent populations were combined, vortexed and then centrifuged at 14,000 rpm at 4° C. for 20 min. Aliquots of the cleared lysates were frozen at −80° C. immediately. A small aliquot was reserved for total protein analysis using a BCA Protein Assay Kit (Calbiochem #71285-3).
(§3) Samples representing 20 μg of total protein of each lysate were solubilized in the presence of 50 mM Tris pH 6.8, 10% glycerol, 2% SDS and 100 mM DTT for 5 min at 95° C. and then loaded onto 10-20% acrylamide gels (BioRad #345-0044, Tris-HCl, 1 mm, 26 well, 15 μL/well). Electrophoresis was performed using Laemli electrophoresis buffer (0.1% SDS, 25 mM Tris, 192 mM glycine) at 200 V, constant voltage, for one hour. Upon completion of electrophoresis, the proteins were transferred to Immun-Blot PVDF membranes (BioRad #162-0238) in ice-cold 20% methanol in 25 mM Tris, 192 mM glycine for 2 hr at 0.5 Amps, constant current/blotting apparatus. The membranes were then cut vertically between molecular weight markers and in half at the 64 kDa marker to generate pieces for screening of higher molecular weight proteins (e.g., FAK) and lower molecular weight proteins (e.g., MEK and GAPDH). The blots were then blocked for a minimum of 4 hrs at room temperature in 3% bovine serum albumin (Sigma A0336) in 50 mM Tris, pH 7.4, 145 mM NaCl, 0.05% Tween-20 (TTBS) containing 0.05% sodium azide.
Upon completion of the primary antibody incubation, the blots were washed three times for 10 min in TTBS and then incubated with 1/25,000 dilutions of peroxidase-conjugated donkey anti-mouse IgG (Jackson ImmunoResearch #715-035-150) or peroxidase-conjugated donkey anti-rabbit IgG (Jackson ImmunoResearch #711-035-152) in TTBS containing 3% BSA for one hour at room temperature. […]

MEK = MEK phosphorylation (S217/221) in SKOV3 cells, immunoblot and densitometry
Procedure: as §1, §2
(§4) Samples representing 20 μg of total protein of each lysate were solubilized in the presence of 50 mM Tris pH 6.8, 10% glycerol, 2% SDS and 100 mM DTT for 5 min at 95° C. and then loaded onto 10-20% acrylamide gels (BioRad #345-0044, Tris-HCl, 1 mm, 26 well, 15 μL/well). Electrophoresis was performed using Laemli electrophoresis buffer (0.1% SDS, 25 mM Tris, 192 mM glycine) at 200 V, constant voltage, for one hour. Upon completion of electrophoresis, the proteins were transferred to Immun-Blot PVDF membranes (BioRad #162-0238) in ice-cold 20% methanol in 25 mM Tris, 192 mM glycine for 2 hr at 0.5 Amps, constant current/blotting apparatus. […]
(§5) The integrated densities (id) of the bands of interest were measured using Image J software (NIH). […]

CD44 = biological target: T1, CD44 (Homo sapiens, UniProt P16070); experiment: IM7 binding to SKOV3 cells, FACs analysis; conditions: IM7 1 μg/ml, 4° C.
T1 construct: endogenous in cells; host or cells: SKOV3 cells
Procedure: In FIGS. 14a and 14b SKOV3 cells were incubated with the indicated concentrations of Å6 for 30 min at 4° C. IM7 (1 μg/ml) was then added and allowed to bind for 30 min at 4° C., after which the cells were washed and incubated with FITC-donkey anti-rat IgG for 30 min at 4° C. The cells were washed once and then subjected to FACs analysis.

FAK = FAK phosphorylation in SKOV3 cells, immunoblot and densitometry
Procedure: as §1, §2, §4, §5

PKCalpha = PKCalpha phosphorylation in SKOV3 cells, immunoblot
Procedure: as §1, §2
as §3, with “The blots were then blocked for a minimum of 4 hrs at room temperature in 3% bovine serum albumin (Sigma A0336) in 50 mM Tris, pH 7.4, 145 mM NaCl, 0.05% Tween-20 (TTBS) containing 0.05% sodium azide.” left out

T1 sequence (P16070 21-742): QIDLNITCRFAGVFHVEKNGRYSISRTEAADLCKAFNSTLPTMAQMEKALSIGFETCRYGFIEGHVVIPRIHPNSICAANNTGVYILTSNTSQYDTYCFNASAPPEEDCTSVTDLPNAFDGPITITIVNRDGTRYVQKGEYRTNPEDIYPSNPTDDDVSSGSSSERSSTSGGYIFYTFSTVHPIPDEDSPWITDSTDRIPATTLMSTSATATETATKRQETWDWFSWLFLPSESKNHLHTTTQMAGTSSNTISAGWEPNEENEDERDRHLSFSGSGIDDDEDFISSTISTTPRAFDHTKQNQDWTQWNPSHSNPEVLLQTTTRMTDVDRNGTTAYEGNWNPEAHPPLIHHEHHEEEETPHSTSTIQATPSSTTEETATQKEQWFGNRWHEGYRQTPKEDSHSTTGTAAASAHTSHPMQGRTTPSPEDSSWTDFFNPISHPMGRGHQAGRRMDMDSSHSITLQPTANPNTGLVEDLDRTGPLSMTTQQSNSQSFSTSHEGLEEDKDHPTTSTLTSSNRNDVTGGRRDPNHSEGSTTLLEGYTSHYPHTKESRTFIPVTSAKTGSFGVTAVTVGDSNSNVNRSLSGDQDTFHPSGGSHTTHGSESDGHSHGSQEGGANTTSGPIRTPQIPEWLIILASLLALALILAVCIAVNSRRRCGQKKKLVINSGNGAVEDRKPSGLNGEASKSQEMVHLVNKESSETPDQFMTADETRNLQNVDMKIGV

Substance: acetyl-Lys-Pro-Ser-Ser-Pro-Pro-Glu-Glu-NH2 (Ac-KPSSPPEE-NH2) [Å6]
- migration of A2780 (A2780 cells [1]): essentially unaffected
- binding of A2780 cells to HA (A2780 cells [2]): does not substantially modulate
- pERK/Erk (ERK 1/2; CM/V): appears to have increased
- pERK/Erk (ERK 1/2; CM/V with HA present): decreased
- pERK/Erk (ERK 1/2; basal media (RPMI/BSA)): increased pERK/Erk in a dose dependent manner
- pErk/Erk response to HA (ERK 1/2; basal media with HA): decreased this response to HA
- CM/V-increased pMEK/MEK ratios (MEK; CM/V): potentiated this response
- pMEK/MEK (MEK; under all conditions): enhanced
- IM7 antibody binding to SKOV3 cells (CD44): increase in antibody binding with increasing concentration
- FAK phosphorylation (FAK; CM/V media): enhanced
- FAK phosphorylation in the presence of HA (FAK; RPMI/BSA): restored
- pFAK/FAK ratios (FAK; SKOV3, all conditions, Y397, Y576/577, Y925): enhanced pFAK/FAK ratios in a dose-dependent manner
- total PKCalpha (PKCalpha; CM/V cultured samples): decreased
- pPKCa/PKCa (PKCalpha; CM/V in the absence of HA): decreased
- pPKCa/PKCa (PKCalpha; in the presence of HA): appears to have further enhanced
